Biological target: T1, POLγA:Y955C (Homo sapiens, UniProt P54098, Y955C)
T1 sequence (P54098 1-1239 Y955C): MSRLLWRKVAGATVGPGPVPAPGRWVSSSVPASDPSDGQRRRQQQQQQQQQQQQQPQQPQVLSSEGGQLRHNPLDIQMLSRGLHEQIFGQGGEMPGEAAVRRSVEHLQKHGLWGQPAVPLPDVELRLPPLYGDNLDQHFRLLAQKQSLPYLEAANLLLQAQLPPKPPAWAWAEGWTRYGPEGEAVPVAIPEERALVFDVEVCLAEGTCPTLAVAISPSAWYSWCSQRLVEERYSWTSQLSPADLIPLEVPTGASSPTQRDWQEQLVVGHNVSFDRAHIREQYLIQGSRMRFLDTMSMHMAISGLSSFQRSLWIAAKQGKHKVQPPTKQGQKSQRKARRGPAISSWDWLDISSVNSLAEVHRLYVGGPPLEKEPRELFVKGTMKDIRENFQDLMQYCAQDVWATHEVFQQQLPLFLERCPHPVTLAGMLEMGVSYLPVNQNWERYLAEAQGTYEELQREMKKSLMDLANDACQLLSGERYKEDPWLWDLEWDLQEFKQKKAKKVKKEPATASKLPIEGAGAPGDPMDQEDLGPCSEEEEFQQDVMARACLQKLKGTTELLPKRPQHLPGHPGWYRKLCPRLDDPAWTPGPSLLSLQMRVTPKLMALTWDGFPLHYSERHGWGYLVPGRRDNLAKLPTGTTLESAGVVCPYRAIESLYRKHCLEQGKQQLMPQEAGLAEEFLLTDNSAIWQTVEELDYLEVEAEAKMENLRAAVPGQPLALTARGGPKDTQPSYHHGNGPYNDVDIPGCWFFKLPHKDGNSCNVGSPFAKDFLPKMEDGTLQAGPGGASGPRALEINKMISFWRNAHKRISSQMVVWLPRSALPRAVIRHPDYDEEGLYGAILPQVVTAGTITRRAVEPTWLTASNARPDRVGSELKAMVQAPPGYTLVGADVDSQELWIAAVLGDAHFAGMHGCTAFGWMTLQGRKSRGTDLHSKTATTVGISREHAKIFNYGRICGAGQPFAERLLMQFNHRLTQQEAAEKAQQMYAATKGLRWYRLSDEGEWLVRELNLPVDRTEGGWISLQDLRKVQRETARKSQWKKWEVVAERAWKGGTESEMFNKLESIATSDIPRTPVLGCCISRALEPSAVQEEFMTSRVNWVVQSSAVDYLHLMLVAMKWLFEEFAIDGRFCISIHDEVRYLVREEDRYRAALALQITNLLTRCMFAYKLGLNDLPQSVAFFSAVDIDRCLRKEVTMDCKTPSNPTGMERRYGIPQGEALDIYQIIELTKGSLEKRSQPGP
T1 sequence (Q9UHN1 1-485 partner): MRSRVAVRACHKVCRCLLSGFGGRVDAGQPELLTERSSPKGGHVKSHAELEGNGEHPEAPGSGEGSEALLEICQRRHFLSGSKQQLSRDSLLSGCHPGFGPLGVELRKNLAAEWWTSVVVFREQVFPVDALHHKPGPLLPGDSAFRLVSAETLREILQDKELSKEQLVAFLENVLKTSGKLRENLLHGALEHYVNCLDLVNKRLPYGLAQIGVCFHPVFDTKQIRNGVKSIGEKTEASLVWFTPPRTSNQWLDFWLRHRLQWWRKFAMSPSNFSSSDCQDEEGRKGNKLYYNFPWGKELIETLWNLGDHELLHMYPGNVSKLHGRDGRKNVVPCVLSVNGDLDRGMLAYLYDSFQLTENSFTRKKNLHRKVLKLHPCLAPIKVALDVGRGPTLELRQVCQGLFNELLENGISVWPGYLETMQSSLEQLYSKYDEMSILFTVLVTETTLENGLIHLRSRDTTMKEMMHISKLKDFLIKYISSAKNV
Assay: DNA polymerization assay, POLγA:Y955C mutant
Format: biochemical
Conditions: stimulation of polymerase activity, primed M13mp18 ssDNA, 37° C. 2 hours
Procedure: DNA Polymerization Assay to Monitor Effects on Human Wildtype POLγ and Four Disease-Causing Mutant Variants of Human POLγ.
The ability of small molecules to stimulate the polymerase activity of POLγ was analyzed in a quantitative fluorescence SYBR Green I assay with fluorescence intensity (FI) readout.
In the presence of dNTPs, wild type human POLγ and mutant derivatives thereof were incubated with single-stranded, circular M13mp18 ssDNA hybridized to a short DNA oligonucleotide that functions as a primer for initiation of DNA synthesis. POLγ and mutant derivatives thereof will extend the primer and use the M13mp18 molecule as a template to synthesize long stretches of double-stranded DNA. SYBR Green I, which is a double-stranded DNA-binding dye, was used to quantify formation of double-stranded DNA in the reaction. When bound to double-stranded DNA, SYBR Green I fluorescence increases by up to 100-fold.
The assay was performed in the 384-well plate format. Upon addition of compounds, changes in double-stranded DNA synthesis activity can be monitored by following effects on fluorescent intensity.
The reactions also contained the accessory POLγB subunit, and the human mitochondrial single-stranded DNA binding protein (mtSSB).
The DNA template mixture used in the assay contained 0.5 nM primed M13 mp18 ssDNA, 400 nM mtSSB, 0.1 mM Tris-HCl (pH 8.0), 0.1 mM dNTP, 10 mM MgCl2, 0.1 mg/mL BSA, 1 mM TCEP solution, and 0.02% Triton X-100. The DNA template mixture for the wild type protein contained either 100 μM dNTP, 1 μM dNTP, or 0.1 μM dNTP, designated in Table 2 as 100 μM, 1 μM, and 0.1 μM, respectfully.
Microplates with compounds (0.1 μL in each well) to be tested in the assay were prepared from 10 mM compound stocks in 100% DMSO, and equal amounts of DMSO without any compound were added to positive and negative control wells.
The protein mixture was dispensed (5 μL into each well) into compound plates and incubated at 37° C. for 15 minutes. After incubation, 5 μL of the DNA template mixture was dispensed into each well. The plates were then incubated at 37° C. for 2 hours.
During incubation, a combined stop buffer and detection reagent solution was prepared. The buffer contained 25 mM EDTA (pH 8.0), 0.02% Triton X-100, and SYBR Green I [Invitrogen] diluted 10,000× (for fluorescent readout). EDTA will stop the enzymatic reaction by chelating magnesium ions.

Row | Compound | AC50 [µM]
1 | Cc1cc(S(=O)(=O)Nc2cccc(C(=O)N(C)C(C)CO)c2)c(C)cc1Cl (single isomer, unassigned) [Example 14, 3-((4-chloro-2,5-dimethylphenyl)sulfonamido)-N-(1-hydroxypropan-2-yl)-N-methylbenzamide] | 2
2 | Cc1ccc(C)c(S(=O)(=O)Nc2cccc(C(=O)N3CCCCC3C#N)c2)c1 (centres unmarked) [Example 2, N-(3-(2-cyanopiperidine-1-carbonyl)phenyl)-2,5-dimethylbenzenesulfonamide] | 1
3 | Cc1ccc(C)c(S(=O)(=O)Nc2cccc(C(=O)N3CCCCC3)c2)c1 [Example 3, 2,5-dimethyl-N-(3-(piperidine-1-carbonyl)phenyl)benzene sulfonamide] | 5
4 | Cc1ccc(C)c(S(=O)(=O)Nc2cccc(C(=O)NCC3CC3)c2)c1 [Example 4, N-(cyclopropylmethyl)-3-((2,5-dimethylphenyl)sulfonamido)benzamide] | 11
5 | Cc1ccc(C)c(S(=O)(=O)Nc2cccc(C(=O)N3CCCC[C@H]3C)c2)c1 [Example 5, (R)-2,5-dimethyl-N-(3-(2-methylpiperidine-1-carbonyl)phenyl)benzenesulfonamide] | 3
6 | Cc1ccc(C)c(S(=O)(=O)Nc2cccc(C(=O)N3CCCC[C@@H]3C)c2)c1 [Example 6, (S)-2,5-dimethyl-N-(3-(2-methylpiperidine-1-carbonyl)phenyl)benzenesulfonamide] | 5
7 | Cc1ccc(C)c(S(=O)(=O)Nc2cccc(C(=O)N3CCOCC3C#N)c2)c1 (centres unmarked) [Example 7, N-(3-(3-cyanomorpholine-4-carbonyl)phenyl)-2,5-dimethylbenzenesulfonamide] | 1
8 | Cc1ccc(C)c(S(=O)(=O)Nc2cccc(C(=O)N[C@@H](C)C3CC3)c2)c1 [Example 8, (S)-N-(1-cyclopropylethyl)-3-((2,5-dimethylphenyl)sulfonamido)benzamide] | 3
9 | Cc1cc(S(=O)(=O)Nc2cccc(C(=O)N3CCCC[C@H]3C)c2)c(C)cc1Cl [Example 9, (R)-4-chloro-2,5-dimethyl-N-(3-(2-methylpiperidine-1-carbonyl)phenyl)benzenesulfonamide] | 2
10 | Cc1cc(S(=O)(=O)Nc2cccc(C(=O)N3CCC[C@H]3C)c2)c(C)cc1Cl [Example 10, (R)-4-chloro-2,5-dimethyl-N-(3-(2-methylpyrrolidine-1-carbonyl)phenyl)benzenesulfonamide] | 0.4
11 | Cc1cc(S(=O)(=O)Nc2cccc(C(=O)NCc3ccccc3)c2)c(C)cc1Cl [Example 11, N-benzyl-3-((4-chloro-2,5-dimethylphenyl)sulfonamido)benzamide] | 4
12 | Cc1cc(S(=O)(=O)Nc2cccc(C(=O)N(C)C)c2)c(C)cc1Cl [Example 12, 3-((4-chloro-2,5-dimethylphenyl)sulfonamido)-N,N-dimethylbenzamide] | 2
13 | Cc1cc(S(=O)(=O)Nc2cc(F)cc(C(=O)N3CCC[C@H]3C)c2)c(C)cc1Cl [Example 13, (R)-4-chloro-N-(3-fluoro-5-(2-methylpyrrolidine-1-carbonyl)phenyl)-2,5-dimethylbenzenesulfonamide] | 2
14 | Cc1cc(S(=O)(=O)Nc2cccc(-c3nccs3)c2)c(C)cc1Cl [Example 16, 4-chloro-2,5-dimethyl-N-(3-(thiazol-2-yl)phenyl)benzenesulfonamide] | 0.8
15 | Cc1cc(S(=O)(=O)Nc2cccc(-c3ncco3)c2)c(C)cc1Cl [Example 17, 4-chloro-2,5-dimethyl-N-(3-(oxazol-2-yl)phenyl)benzenesulfonamide] | 0.8
16 | Cc1cc(S(=O)(=O)Nc2cccc(-c3ccn(C)n3)c2)c(C)cc1Cl [Example 18, 4-chloro-2,5-dimethyl-N-(3-(1-methyl-1H-pyrazol-3-yl)phenyl)benzenesulfonamide] | 3
17 | Cc1cc(S(=O)(=O)Nc2cccc(-c3nccn3C)c2)c(C)cc1Cl [Example 19, 4-chloro-2,5-dimethyl-N-(3-(1-methyl-1H-imidazol-2-yl)phenyl)benzenesulfonamide] | 0.5
18 | Cc1cc(S(=O)(=O)Nc2cccc(-c3ncc(C#N)s3)c2)c(C)cc1Cl [Example 96, 4-chloro-N-(3-(5-cyanothiazol-2-yl)phenyl)-2,5-dimethylbenzenesulfonamide] | 50
19 | Cc1cnc(-c2ccc(C)c(NS(=O)(=O)c3cc(C)c(Cl)cc3C)c2)s1 [Example 98, 4-chloro-2,5-dimethyl-N-(2-methyl-5-(5-methylthiazol-2-yl)phenyl)benzenesulfonamide] | > 10
20 | Cc1cnc(-c2ccc(Cl)c(NS(=O)(=O)c3cc(C)c(Cl)cc3C)c2)s1 [Example 102, 4-chloro-N-(2-chloro-5-(5-methylthiazol-2-yl)phenyl)-2,5-dimethylbenzenesulfonamide] | > 100
21 | Cc1cnc(-c2cc(NS(=O)(=O)c3cc(C)c(Cl)cc3C)ccc2C)s1 [Example 103, 4-chloro-2,5-dimethyl-N-(4-methyl-3-(5-methylthiazol-2-yl)phenyl)benzenesulfonamide] | 9
22 | Cc1cc(S(=O)(=O)Nc2ccc3c(c2)CC(=O)N3)c(C)cc1Cl [Example 185, 4-chloro-2,5-dimethyl-N-(2-oxoindolin-5-yl)benzenesulfonamide] | 2
23 | (R)-2,5-dimethyl-N-(3-(3-methylmorpholine-4-carbonyl)phenyl)benzenesulfonamide [Example 1] | 2

Source: patent US20260138961A1, “MODULATORS OF MITOCHONDRIAL DNA REPLICATION” (Pretzel Therapeutics, Inc., priority 2022, published 2026)
